Key:
barnyard grass [1] = test: Test Example 3: herbicidal effect by foliage application, Wagner pot (Table 18, symbol H); format: in vivo, barnyard grass (Echinochloa crus-galli); details: for Herbicidal effect on H (barnyard grass), foliage application: amount of applied herbicide 320 g/ha
Method in brief: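 Plants were sown in alluvial soil held under 0.1–0.5 cm standing water and grown 14 days in a greenhouse at 25–30 °C. An emulsifiable formulation, water-diluted to the set dose, was then sprayed onto the foliage, and effects were scored three weeks later using previously defined criteria.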

chickweed = test: Test Example 4: herbicidal effect by soil treatment (Table 19, symbol P); format: in vivo, common chickweed (Stellaria media); details: amount of applied herbicide 320 g/ha
Method in brief: (§1)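 In this soil treatment, the formulated compound reached the seeds only through the soil: seeds were buried about 1.5 cm deep in sterilized diluvial soil, then the diluted emulsion was sprayed over the surface. After three weeks at 25° C. to 30° C. in a greenhouse, effects were graded on criteria from an earlier test.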

green foxtail = test: Test Example 5: herbicidal effect by foliage application, plastic box (Table 20, symbol G); format: in vivo, green foxtail (Setaria viridis); details: foliage application, 320 g/ha, three weeks after application
Method in brief: (§2)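 Plants were sown into sterilized diluvial soil under about 1.5 cm cover and kept in a greenhouse at 25° C. to 30° C. Fourteen days on, foliage received an even spray of the diluted emulsion. Herbicidal or crop effect was judged three weeks afterwards.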

Japanese bulrush [2] = test: Test Example 1: herbicidal activity, application before weed generation under submerged conditions (Table 16, symbol B); format: in vivo, Japanese bulrush (Schoenoplectus juncoides); details: amount of applied herbicide 320 g/ha
Method in brief: (§3)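 Emulsion formulation, water-diluted to set dose, was put onto the flooded surface (4 cm depth, alluvial soil) the same day weeds were sown and 2.5-leaf rice transplanted. After 3 weeks at 25-30 °C under glass, each species was rated 0 (≤5% kill) to 5 (≥90% kill).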

barnyard grass [3] = test: Test Example 4: herbicidal effect by soil treatment (Table 19, symbol H); format: in vivo, barnyard grass (Echinochloa crus-galli); details: amount of applied herbicide 320 g/ha
Method in brief: as §1

redroot pigweed = test: Test Example 4: herbicidal effect by soil treatment (Table 19, symbol N); format: in vivo, redroot pigweed (Amaranthus retroflexus); details: amount of applied herbicide 320 g/ha
Method in brief: as §1

late watergrass = test: Test Example 2: herbicidal activity, application during weed generation under submerged conditions (Table 17, symbol A); format: in vivo, late watergrass (Echinochloa oryzicola); details: AAH 320 g/ha; application during weed generation, submerged conditions
Method in brief: (§4)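 Alluvial soil in Wagner pots was flooded to 4 cm depth and sown with the three weeds together; pots were kept in a greenhouse at 25° C. to 30° C. At the one to two leaf stage, an emulsion formulation diluted in water to a set rate went onto the water surface; scored three weeks later.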

lambsquarters = test: Test Example 5: herbicidal effect by foliage application, plastic box (Table 20, symbol O); format: in vivo, lambsquarters (Chenopodium album); details: foliage application, 320 g/ha, three weeks after application
Method in brief: as §2

southern crabgrass [4] = test: Test Example 4: herbicidal effect by soil treatment (Table 19, symbol F); format: in vivo, southern crabgrass (Digitaria ciliaris); details: amount of applied herbicide 320 g/ha
Method in brief: as §1

southern crabgrass [5] = test: Test Example 5: herbicidal effect by foliage application, plastic box (Table 20, symbol F); format: in vivo, southern crabgrass (Digitaria ciliaris); details: foliage application, 320 g/ha, three weeks after application
Method in brief: as §2

blackgrass [6] = test: Test Example 5: herbicidal effect by foliage application, plastic box (Table 20, symbol J); format: in vivo, blackgrass (Alopecurus myosuroides); details: foliage application, 320 g/ha, three weeks after application
Method in brief: as §2

Japanese bulrush [7] = test: Test Example 2: herbicidal activity, application during weed generation under submerged conditions (Table 17, symbol B); format: in vivo, Japanese bulrush (Schoenoplectus juncoides); details: AAH 320 g/ha; application during weed generation, submerged conditions
Method in brief: as §4

persian speedwell = test: Test Example 5: herbicidal effect by foliage application, plastic box (Table 20, symbol R); format: in vivo, Persian speedwell (Veronica persica); details: foliage application, 320 g/ha, three weeks after application
Method in brief: as §2

wild oat = test: Test Example 5: herbicidal effect by foliage application, plastic box (Table 20, symbol I); format: in vivo, wild oat (Avena fatua); details: foliage application, 320 g/ha, three weeks after application
Method in brief: as §2

oval-leafed pondweed = test: Test Example 1: herbicidal activity, application before weed generation under submerged conditions (Table 16, symbol C); format: in vivo, oval-leafed pondweed (Monochoria vaginalis); details: amount of applied herbicide 320 g/ha
Method in brief: as §3

blackgrass [8] = test: Test Example 4: herbicidal effect by soil treatment (Table 19, symbol J); format: in vivo, blackgrass (Alopecurus myosuroides); details: amount of applied herbicide 320 g/ha
Method in brief: as §1

| Compound | herbicidal effect on barnyard grass (H) (barnyard grass [1]; 320 g/ha) | P: chickweed, herbicidal effect grade (chickweed) | herbicidal effect on green foxtail (G) (green foxtail) | Herbicidal effect, B: Japanese bulrush (Japanese bulrush [2]) | H: barnyard grass, herbicidal effect grade (barnyard grass [3]) | N: redroot pigweed, herbicidal effect grade (redroot pigweed) | herbicidal effect rating, A: late watergrass (late watergrass) | herbicidal effect on lambsquarters (O) (lambsquarters) | F: southern crabgrass, herbicidal effect grade (southern crabgrass [4]) | herbicidal effect on southern crabgrass (F) (southern crabgrass [5]) | herbicidal effect on blackgrass (J) (blackgrass [6]) | herbicidal effect rating, B: Japanese bulrush (Japanese bulrush [7]) | herbicidal effect on persian speedwell (R) (persian speedwell) | herbicidal effect on wild oat (I) (wild oat) | Herbicidal effect, C: oval-leafed pondweed (oval-leafed pondweed) | J: blackgrass, herbicidal effect grade (blackgrass [8]) | Herbicidal effect on H (barnyard grass), foliage application (barnyard grass [1]) |
| --- | --- | --- | --- | --- | --- | --- | --- | --- | --- | --- | --- | --- | --- | --- | --- | --- | --- |
| CCOc1ccccc1-c1sc2cc(C)c(C)cc2c1-c1c(O)c(C)nn(C)c1=O [5-094] | 5 (Herbicidal rate of 90% or more (almost completely withered)) | 1 (Herbicidal rate of 5% or more and less than 20%) | 5 (Herbicidal rate of 90% or more (almost completely withered)) | 4 (Herbicidal rate of 70% or more and less than 90%) | 1 (Herbicidal rate of 5% or more and less than 20%) | 3 (Herbicidal rate of 40% or more and less than 70%) | 2 (Herbicidal rate of 20% or more and less than 40%) | 4 (Herbicidal rate of 70% or more and less than 90%) | 4 (Herbicidal rate of 70% or more and less than 90%) | 5 (Herbicidal rate of 90% or more (almost completely withered)) | 4 (Herbicidal rate of 70% or more and less than 90%) | 3 (Herbicidal rate of 40% or more and less than 70%) | 5 (Herbicidal rate of 90% or more (almost completely withered)) | 1 (Herbicidal rate of 5% or more and less than 20%) | 4 (Herbicidal rate of 70% or more and less than 90%) | 1 (Herbicidal rate of 5% or more and less than 20%) |  |
| COc1ccccc1-c1sc2c(Br)c(OC)ccc2c1-c1c(O)c(C)nn(C)c1=O [7-002] |  | 3 (Herbicidal rate of 40% or more and less than 70%) | 5 (Herbicidal rate of 90% or more (almost completely withered)) | 3 (Herbicidal rate of 40% or more and less than 70%) | 2 (Herbicidal rate of 20% or more and less than 40%) | 5 (Herbicidal rate of 90% or more (almost completely withered)) | 3 (Herbicidal rate of 40% or more and less than 70%) | 4 (Herbicidal rate of 70% or more and less than 90%) | 1 (Herbicidal rate of 5% or more and less than 20%) | 0 (Herbicidal rate of 5% or less (almost no effect)) | 0 (Herbicidal rate of 5% or less (almost no effect)) | 2 (Herbicidal rate of 20% or more and less than 40%) | 5 (Herbicidal rate of 90% or more (almost completely withered)) | 0 (Herbicidal rate of 5% or less (almost no effect)) | 3 (Herbicidal rate of 40% or more and less than 70%) | 0 (Herbicidal rate of 5% or less (almost no effect)) | 5 (Herbicidal rate of 90% or more (almost completely withered)) |
| COCCOc1ccc(-c2oc3ccccc3c2-c2c(O)c(C)nn(C)c2=O)cc1 [Compound No. 8-007, 5-hydroxy-4-(2-(4-(2-methoxyethoxy)phenyl)benzofuran-3-yl)-2,6-dimethylpyridazin-3-(2H)-one] |  | 0 (Herbicidal rate of 5% or less (almost no effect)) | 5 (Herbicidal rate of 90% or more (almost completely withered)) | 5 (Herbicidal rate of 90% or more (almost completely withered)) | 5 (Herbicidal rate of 90% or more (almost completely withered)) | 5 (Herbicidal rate of 90% or more (almost completely withered)) | 5 (Herbicidal rate of 90% or more (almost completely withered)) | 4 (Herbicidal rate of 70% or more and less than 90%) | 5 (Herbicidal rate of 90% or more (almost completely withered)) | 5 (Herbicidal rate of 90% or more (almost completely withered)) | 5 (Herbicidal rate of 90% or more (almost completely withered)) | 4 (Herbicidal rate of 70% or more and less than 90%) | 5 (Herbicidal rate of 90% or more (almost completely withered)) | 1 (Herbicidal rate of 5% or more and less than 20%) | 4 (Herbicidal rate of 70% or more and less than 90%) | 3 (Herbicidal rate of 40% or more and less than 70%) | 5 (Herbicidal rate of 90% or more (almost completely withered)) |
| C=CCOc1ccc(-c2oc3ccccc3c2-c2c(O)c(C)nn(C)c2=O)cc1 [8-004] |  | 1 (Herbicidal rate of 5% or more and less than 20%) | 3 (Herbicidal rate of 40% or more and less than 70%) | 5 (Herbicidal rate of 90% or more (almost completely withered)) | 4 (Herbicidal rate of 70% or more and less than 90%) | 5 (Herbicidal rate of 90% or more (almost completely withered)) | 3 (Herbicidal rate of 40% or more and less than 70%) | 3 (Herbicidal rate of 40% or more and less than 70%) | 4 (Herbicidal rate of 70% or more and less than 90%) | 4 (Herbicidal rate of 70% or more and less than 90%) | 3 (Herbicidal rate of 40% or more and less than 70%) | 3 (Herbicidal rate of 40% or more and less than 70%) | 5 (Herbicidal rate of 90% or more (almost completely withered)) | 3 (Herbicidal rate of 40% or more and less than 70%) | 4 (Herbicidal rate of 70% or more and less than 90%) | 0 (Herbicidal rate of 5% or less (almost no effect)) | 5 (Herbicidal rate of 90% or more (almost completely withered)) |
